From patent US4103082A, “Aminocyclitol derivatives and process for producing the same” (priority 1975, dated 1978)
Converted amounts (≈) assume the structure as drawn.

Assays:
[1] = tested on: antibiotic-resistant microorganisms; conditions: J. Antibiotics, 24 (10) 711, (1971); cited from earlier work
[2] = tested on: Enterococcus species C73-33; assay: antibacterial activity (Minimum Inhibitory Concentration); assay type: cell-based; conditions: Enterococcus, C7333
[3] = tested on: Staphylococcus aureus C73-21; assay: as above; assay type: cell-based; conditions: Staphylococcus aureus, C7321
[4] = tested on: Vibrio parahaemolyticus K-5; assay: as above; assay type: cell-based; conditions: Vibrio parahaemolyticus, K5
[5] = tested on: Staphylococcus aureus C73-10; assay: as above; assay type: cell-based; conditions: Staphylococcus aureus, C7310
[6] = tested on: Staphylococcus albus PCI-1200A; assay: as above; assay type: cell-based; conditions: Staphylococcus, PCI1200A
[7] = tested on: Shigella dysenteriae Shigae; assay: microbe, parasite or virus in culture; assay type: cell-based
[8] = tested on: Klebsiella pneumoniae; assay: antibacterial activity (Minimum Inhibitory Concentration); assay type: cell-based
[9] = tested on: E. coli C73-1; assay: as above; assay type: cell-based; conditions: Escherichia coli, C731
[10] = tested on: E. coli C73-12; assay: as above; assay type: cell-based; conditions: Escherichia coli, C7312
[11] = tested on: Proteus species C73-33; assay: as above; assay type: cell-based
[12] = tested on: Enterococcus species C73-17; assay: as above; assay type: cell-based; conditions: Enterococcus, C7317
[13] = tested on: Staphylococcus aureus Smith S-424; assay: as above; assay type: cell-based; conditions: Staphylococcus aureus, SMITHS424
[14] = tested on: Bacillus subtilis ATCC 6633; assay: as above; assay type: cell-based; conditions: Bacillus subtilis, ATCC6633
[15] = tested on: Proteus species C73-34; assay: as above; assay type: cell-based
[16] = tested on: Staphylococcus aureus No. 26; assay: as above; assay type: cell-based; conditions: Staphylococcus aureus, NO.26
[17] = tested on: Vibrio parahaemolyticus K-3; assay: as above; assay type: cell-based; conditions: Vibrio parahaemolyticus, K3
[18] = tested on: Proteus species C73-23; assay: as above; assay type: cell-based
[19] = tested on: Salmonella species C73-30; assay: as above; assay type: cell-based; conditions: C7330
[20] = tested on: Staphylococcus aureus C73-4; assay: as above; assay type: cell-based; conditions: Staphylococcus aureus, C734
[21] = tested on: E. coli C73-4; assay: as above; assay type: cell-based; conditions: Escherichia coli, C734
[22] = tested on: Vibrio parahaemolyticus K-7; assay: as above; assay type: cell-based; conditions: Vibrio parahaemolyticus, K7
[23] = tested on: Proteus species C73-25; assay: as above; assay type: cell-based
[24] = tested on: Bacillus anthracis No. 119; assay: microbe, parasite or virus in culture; assay type: cell-based
[25] = tested on: Staphylococcus aureus 209P JC-1; assay: antibacterial activity (Minimum Inhibitory Concentration); assay type: cell-based; conditions: Staphylococcus aureus, 209P
[26] = tested on: Proteus morganii Kono; assay: as above; assay type: cell-based; conditions: Morganella morganii
[27] = tested on: E. coli K-12; assay: paper disk method, inhibitory zone diameter; assay type: cell-based; conditions: Escherichia coli, K12, read-out: inhibitory zone diameter
[28] = tested on: Mycobacterium 607; assay: paper disk method, inhibitory zone diameter; assay type: cell-based; conditions: Mycobacterium, 607, read-out: inhibitory zone diameter
[29] = tested on: E. coli HL-1629 (Kanamycin-resistant strain); assay: microbe, parasite or virus in culture; assay type: cell-based; conditions: Escherichia coli, read-out: inhibitory zone diameter
[30] = tested on: Pseudomonas 1007; assay: paper disk method, inhibitory zone diameter; assay type: cell-based; conditions: Pseudomonas, 1007, read-out: inhibitory zone diameter
[31] = tested on: Klebsiella 7; assay: paper disk method, inhibitory zone diameter; assay type: cell-based; conditions: Klebsiella, 7, read-out: inhibitory zone diameter
[32] = tested on: Klebsiella 6; assay: paper disk method, inhibitory zone diameter; assay type: cell-based; conditions: Klebsiella, 6, read-out: inhibitory zone diameter
[33] = tested on: Staphylococcus aureus 6538P; assay: paper disk method, inhibitory zone diameter; assay type: cell-based; conditions: read-out: inhibitory zone diameter
[34] = tested on: Bacillus subtilis ATCC 6633; assay: paper disk method, inhibitory zone diameter; assay type: cell-based; conditions: ATCC6633, read-out: inhibitory zone diameter

## NC[C@@H]1CC[C@@H](N)[C@@H](O[C@H]2[C@H](O)[C@@H](O)[C@H](N)C[C@@H]2N)O1 [3',4'-deoxyneamine]
[1]
  antimicrobial activities against antibiotic-resistant microorganisms: exhibits antimicrobial activities against various antibiotic-resistant microorganisms

## NC[C@H]1O[C@H](O[C@H]2[C@H](O)[C@@H](O)[C@H](N)C[C@@H]2N)[C@H](N)[C@@H](O)[C@@H]1O [Neomycin A, reference compound]
[2]
  MIC: 12.5 µg/mL (≈ 38.8 µM)
[3]
  MIC: 0.78 µg/mL (≈ 2.42 µM)
[4]
  MIC: 50 µg/mL (≈ 155 µM)
[5]
  MIC: 3.13 µg/mL (≈ 9.71 µM)
[6]
  MIC: 0.78 µg/mL (≈ 2.42 µM)
[7]
  MIC: 12.5 µg/mL (≈ 38.8 µM)
[8]
  MIC: 12.5 µg/mL (≈ 38.8 µM)
[9]
  MIC: 25 µg/mL (≈ 77.6 µM)
[10]
  MIC: 12.5 µg/mL (≈ 38.8 µM)
[11]
  MIC: 100 µg/mL (≈ 310 µM)
[12]
  MIC: 100 µg/mL (≈ 310 µM)
[13]
  MIC: 1.56 µg/mL (≈ 4.84 µM)
[14]
  MIC: 1.56 µg/mL (≈ 4.84 µM)
[15]
  MIC: 25 µg/mL (≈ 77.6 µM)
[16]
  MIC: 3.13 µg/mL (≈ 9.71 µM)
[17]
  MIC: 1.56 µg/mL (≈ 4.84 µM)
[18]
  MIC: 25 µg/mL (≈ 77.6 µM)
[19]
  MIC: 25 µg/mL (≈ 77.6 µM)
[20]
  MIC: 3.13 µg/mL (≈ 9.71 µM)
[21]
  MIC: 25 µg/mL (≈ 77.6 µM)
[22]
  MIC: 50 µg/mL (≈ 155 µM)
[23]
  MIC: 6.25 µg/mL (≈ 19.4 µM)
[24]
  MIC: 12.5 µg/mL (≈ 38.8 µM)
[25]
  MIC: 0.78 µg/mL (≈ 2.42 µM)
[26]
  MIC: 12.5 µg/mL (≈ 38.8 µM)

## NC[C@H]1O[C@H](O[C@H]2[C@H](O)[C@@H](O)[C@H](N)C[C@@H]2N)[C@H](N)[C@@H](O)[C@@H]1O [Neamine, neamine, reference compound]
[27]
  zone of inhibition at 7.8 µg/mL: 0 mm
  zone of inhibition at 15.6 µg/mL: 0 mm
  zone of inhibition at 31.2 µg/mL: 11.4 mm
  zone of inhibition at 62.5 µg/mL: 14.3 mm
  zone of inhibition at 125 µg/mL: 17.2 mm
  zone of inhibition at 250 µg/mL: 20.4 mm
  zone of inhibition at 500 µg/mL: 22.6 mm
  zone of inhibition at 1000 µg/mL: 25.2 mm
  zone of inhibition at 2000 µg/mL: 27.4 mm
[28]
  zone of inhibition at 62.5 µg/mL: 0 mm
  zone of inhibition at 125 µg/mL: 0 mm
  zone of inhibition at 250 µg/mL: 14.8 mm
  zone of inhibition at 500 µg/mL: 20.4 mm
  zone of inhibition at 1000 µg/mL: 26.4 mm
  zone of inhibition at 2000 µg/mL: 32.5 mm
[29]
  zone of inhibition at 1000 µg/mL: 0 mm
  zone of inhibition at 2000 µg/mL: 12.3 mm
[30]
  zone of inhibition at 2000 µg/mL: 0 mm
[31]
  zone of inhibition at 2000 µg/mL: 0 mm
[32]
  zone of inhibition at 2000 µg/mL: 0 mm
[33]
  zone of inhibition at 7.8 µg/mL: 0 mm
  zone of inhibition at 15.6 µg/mL: 0 mm
  zone of inhibition at 31.2 µg/mL: 0 mm
  zone of inhibition at 62.5 µg/mL: 10 mm
  zone of inhibition at 125 µg/mL: 13 mm
  zone of inhibition at 250 µg/mL: 15.3 mm
  zone of inhibition at 500 µg/mL: 18.3 mm
  zone of inhibition at 1000 µg/mL: 20.7 mm
  zone of inhibition at 2000 µg/mL: 22.8 mm
[34]
  zone of inhibition at 7.8 µg/mL: 11.5 mm
  zone of inhibition at 15.6 µg/mL: 14 mm
  zone of inhibition at 31.2 µg/mL: 17 mm
  zone of inhibition at 62.5 µg/mL: 19.9 mm
  zone of inhibition at 125 µg/mL: 23 mm
  zone of inhibition at 250 µg/mL: 25 mm
  zone of inhibition at 500 µg/mL: 28.7 mm
  zone of inhibition at 1000 µg/mL: 31 mm
  zone of inhibition at 2000 µg/mL: 33.5 mm
